In the data set the target is T1, OATP1B1 (Homo sapiens, UniProt Q9Y6L6).
T1 construct: expressed in transfected cells; host or cells: A431 epidermoid carcinoma cells
T1 sequence (Q9Y6L6 1-691): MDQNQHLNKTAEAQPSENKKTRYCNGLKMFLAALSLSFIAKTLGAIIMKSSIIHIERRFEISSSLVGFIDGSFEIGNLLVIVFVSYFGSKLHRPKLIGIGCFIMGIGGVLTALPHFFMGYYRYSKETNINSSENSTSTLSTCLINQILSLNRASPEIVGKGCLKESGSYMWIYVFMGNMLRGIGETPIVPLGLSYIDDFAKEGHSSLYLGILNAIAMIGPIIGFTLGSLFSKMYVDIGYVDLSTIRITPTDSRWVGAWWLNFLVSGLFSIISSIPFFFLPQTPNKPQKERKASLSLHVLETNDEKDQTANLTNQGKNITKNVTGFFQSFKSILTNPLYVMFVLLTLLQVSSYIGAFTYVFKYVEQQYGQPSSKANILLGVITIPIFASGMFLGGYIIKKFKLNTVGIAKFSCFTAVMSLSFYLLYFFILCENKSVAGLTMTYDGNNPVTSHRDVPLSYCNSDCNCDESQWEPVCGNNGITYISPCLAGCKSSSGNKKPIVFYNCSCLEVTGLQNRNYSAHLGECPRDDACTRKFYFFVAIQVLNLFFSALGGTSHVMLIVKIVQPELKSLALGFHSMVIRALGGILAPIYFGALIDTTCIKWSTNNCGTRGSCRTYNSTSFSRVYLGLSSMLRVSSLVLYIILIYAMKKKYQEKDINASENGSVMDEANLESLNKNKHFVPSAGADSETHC
Briefly: OATP uptake assay, OATP1B1. The class given is cell-based. To be noted: human, 10 μM. As to the method:
Cell lines: A431 cells overexpressing OATP1B1 or OATP2B1, and their mock transfected controls were generated and characterized previously. The cell lines were cultured in DMEM (Gibco, Thermofisher Scientific, Waltham, MA, USA), supplemented with 10% fetal bovine serum, 2 mM L-glutamine, 100 μg/mL streptomycin, and 100 units/mL penicillin at 37 °C and 5% CO2.
OATP uptake assay: Prior to the experiment, A431 cells (8 × 10^4/well) were seeded on 96-well plates in 200 μL cell culture medium. After 16–24 h, the cells were washed with 200 μL PBS, three times and pre-incubated with 20–200 μM HQNO2-L-Pro, or buffer without HQNO2-L-Pro for 5 min at 37 °C in 50 μL HBSS (Hank’s Balanced Salt Solution, pH 7.4; OATP1B1) or uptake buffer (pH 5.5; OATP2B1 [63]). The reaction was started by the addition of disulfopyrene (6,8-dihydroxy-1,3-pyrenedisulfonic acid disodium salt, Sigma, Darmstadt, Germany) at a final concentration of 10 μM (OATP1B1) or pyranine (8-hydroxypyrene-1,3-pyrenetrisulfonic acid trisodium salt, Sigma, Darmstadt, Germany) at a final concentration of 20 μM (OATP2B1), and the cells were further incubated at 37 °C for 10 min (OATP1B1) or 15 min (OATP2B1). The reaction was stopped by removing the supernatant after which the cells were washed three times with ice-cold PBS. Fluorescence (in 200 μL PBS) was determined using an Enspire plate reader (PerkinElmer, Waltham, MA, USA) with excitation/emission wavelengths of 460/510 nm. OATP-dependent transport was calculated by subtracting fluorescence measured in mock transfected cells. Transport activity was calculated based on the fluorescence signal in the absence (100%) of HQNO2-L-Pro. Experiments were repeated in at least three biological replicates.

As for `O=C(O)[C@@H]1CCCN1Cc1cc([N+](=O)[O-])c2cccnc2c1O` [HQNO2-L-Pro, (2S)-1-((8-hydroxy-5-nitroquinolin-7-yl)methyl)pyrrolidin-1-ium-2-carboxylate], the activity at 10 min, 100 µM (A431 cells overexpressing OATP1B1, pH 7.4, probe disulfopyrene, 100 μM, absence of compound = 100%, n = 3, ± SD, read-out: transport activity % OATP1B1) worked out at 88.1 ± 5.9%. For the same compound, the activity at 10 min, 10 µM (A431 cells overexpressing OATP1B1, pH 7.4, probe disulfopyrene, absence of compound = 100%, n = 3, ± SD, read-out: transport activity % OATP1B1) was determined as 106 ± 4.1%. For the setting “probe disulfopyrene, at 100 μM, A431 cells overexpressing OATP1B1, pH 7.4, read-out: inhibition of OATP1B1 function”, the inhibition – broadly, the share of the control response that was lost under treatment – at 10 min, 100 µM is under 20%.
